Test results taken from US9265735B2, “Methods for screening to identify therapeutic agents for Alzheimer's disease and use thereof” (New York University, priority 2010, dated 2016).
Entries after “also recorded” stand apart in the source; their conditions may differ.

How the values were obtained:
[1] = tested on: WT and PS1 KO cells; assay: Intracellular protein degradation (pulse-chase, [3H]-leucine) in WT and PS1 KO blastocysts; format: cell-based, Murine; settings: serum withdrawal, NH4Cl 20 mM, 3MA 10 mM
Experimental: (§1) Total protein degradation in cultured cells was measured by pulse-chase experiments (Auteri et al., 1983, J Cell Physiol 115, 167-174). Confluent cells were labeled with [^3H]-leucine (2 μCi/ml) for 48 hrs at 37° C. in order to preferentially label long-lived proteins. Following labeling, cells were extensively washed and maintained in complete medium (DMEM+10% fetal bovine serum), under which conditions autophagy is suppressed, or in serum-deprived medium, where autophagy is induced. Under both conditions, after washing the cells, the medium was supplemented with unlabeled 2.8 mM leucine to prevent [^3H]-leucine reincorporation into newly synthesized proteins. Aliquots of the medium taken at different time-points were precipitated with 10% TCA, filtered using a 0.22 μm pore membrane and radioactivity in the flow-through was measured. Proteolysis is expressed as the percentage of the initial acid-precipitable radioactivity (protein) transformed to acid-soluble radioactivity (amino acids and small peptides) over time. To inhibit autophagy in this system, 20 mM NH4Cl or 10 mM 3MA was added immediately after the labeling period and maintained at that concentration throughout the chase. […] Protein synthesis was determined as the incorporation of [^3H]leucine into acid-insoluble material in the presence of an excess (2.8 mM) unlabeled leucine in the medium. […]

[2] = tested on: PS1KO blastocysts; assay: Lysosomal pH measurement with Dextran conjugated Lysosensor Yellow/Blue in PS1KO cells; format: cell-based, Murine; settings: for effect of pretreatment on the action of isoproterenol on lysosomal pH / effect on elevated lysosomal pH in PS1KO cells: PS1KO cells; for effect of pretreatment on the action of isoproterenol on lysosomal pH: pretreatment before isoproterenol, FIG. 10F; for effect on elevated lysosomal pH in PS1KO cells: FIG. 10A/G; for lysosomal pH after treatment relative to WT lysosomal pH (ANOVA, Dunnet's post-test): PS1KO blastocysts, FIG. 11
Experimental: For results presented in Example 1, quantification of lysosomal pH was determined using Dextran conjugated Lysosensor Yellow/Blue DND-160 (Invitrogen) as follows. Wild Type and PS1KO blastocysts were grown in High Glucose DMEM+15% FBS with antibiotics to ˜90% confluency. Cells were then trypsinized, harvested (1×10^6 cells/ml) and loaded with 1 mg/ml of Lysosensor-dextran for 1 hour at 37° C. with 5% CO2. The cells were then washed 3× in HBSS and aliquoted at […] into a black 96-well microplate. pH calibration was performed according to the protocol established by Diwu et al (Diwu et al., (1999). Chem Biol 6, 411-418). Briefly, wild type and PS1KO blastocysts were treated with 10 μM monensin and 10 uM nigericin in MES buffer (5 mM NaCl, 115 mM KCL, 1.3 mM MgSO4, 25 mM MES), with the pH adjusted to a range from 3.5-7.0. The samples were read in a Wallac Victor 2 fluorimeter (Perkin Elmer) with excitation at 355 nm. The ratio of emission 440/535 nm was then calculated for each sample. The pH values were determined from the linear standard curve generated via the pH calibration samples.
In a more particular embodiment, quantification of lysosomal pH is determined using Dextran conjugated Lysosensor Yellow/Blue (Invitrogen) as follows. 3000 Wild Type and PS1KO blastocysts were seeded in multiple wells of black, clear bottom tissue culture treated 96 well dish and grown in High Glucose DMEM+15% FBS with antibiotics to ˜90% confluency (˜24 hours). 2 ul of 0.5 mg/ml lysosensor-dextran (1:100 dilution of a 5 mg/ml stock) was added and incubated for 1 hour at 37° C. with 5% CO2. The cells were then washed 3× in HBSS. See also methods and results set forth herein below in Example 2. This modified protocol represents an optimized protocol for the purposes set forth herein.
(§2) Quantification of lysosomal pH was determined using Dextran conjugated Lysosensor Yellow/Blue (Invitrogen). 3000 Wild Type and PS1KO blastocysts were seeded in multiple wells of black, clear bottom tissue culture treated 96 well dish and grown in High Glucose DMEM+15% FBS with antibiotics to ˜90% confluency (˜24 hours). 2 ul of 0.5 mg/ml lysosensor-dextran (1:100 dilution of a 5 mg/ml stock) was added and incubated for 1 hour at 37° C. with 5% CO2. The cells were then washed 3× in HBSS.
Performed according to the protocol established by Diwu et al (supra). Briefly, wild type and PS1KO blastocysts were treated with 10 uM monensin and 10 uM nigericin in MES buffer (5 mM NaCl, 115 mM KCL, 1.3 mM MgSO4, 25 mM MES), with the pH adjusted to a range from 3.5-7.0 for 7-10 min prior to lysosensor addition (the additional hour in the buffer seems to have no effect), these cells are not washed in HBSS since permeabilization with ionophores makes them susceptible to detachment.
(§3) The samples were read in a Wallac Victor 2 fluorimeter (Perkin Elmer) with excitation at 355 nm. The ratio of emission 440 nm/535 nm was then calculated for each sample. pH values were determined from the linear std curve generated via the pH calibration samples.

[3] = tested on: Cat B; assay: MR-Cat B signal in WT cells; format: cell-based, Murine; settings: NH4Cl treated WT cells
Experimental: (§4) Immunocytochemistry was performed as previously described (Yu et al., 2005). Secondary antibodies used were from Invitrogen: goat anti-mouse/rabbit/rat Alexa Fluor 488 and goat anti-mouse/rabbit/rat Alexa Fluor 568. Cells were imaged using a plan-Apochromat 40× or 100×/1.4 oil DIC objective lens on the laser scanning confocal microscope, LSM 510 META, with LSM software v3.5 (Carl Zeiss MicroImaging Inc). Images were analysed using ImageJ program (NIH). Organelles with low internal pH were labeled by LysoTracker DND-99 dye (Invitrogen) at the final 100 nM for 30 min. Following 4% PFA fixation, cells were further counter stained with Cat D, LMAP1, or LC3 antibody for 4 hrs then visualized with Alexa Fluor 488 conjugated secondary antibody. Active Cat D was labeled by adding Bodipy-FL-pepstatin A directly to the medium at a final concentration of 1 μg/ml for 1 hr. Following 4% PFA fixation, cells were counter stained with Cat D antibody for 4 hrs and visualized with Alexa Fluor 568 conjugated secondary antibody. […] Cells were incubated for 30 min with MR-Cathepsin B prior to mounting them under the confocal microscope. […]
(§5) Active Cat D was labeled by adding Bodipy-FL-pepstatin A directly to the medium at a final concentration of 1 mg/ml for 1 hr. […] Cat B staining with MagicRed-Cathepsin B was also measured fluorometrically with a Wallac Victor 2 fluorometer.

[4] = tested on: PS1-FAD human fibroblasts; assay: Intracellular protein degradation (pulse-chase) in control and PS1-FAD fibroblasts; format: cell-based; settings: serum withdrawal; NH4Cl treatment
Experimental: as §1

[5] = target: T1, Cat D (Mus musculus, UniProt P18242); assay: Active Cat D labeling with Bodipy-FL-pepstatin A in WT cells; format: cell-based, Murine; settings: NH4Cl
T1 construct: endogenous in cells; host or cells: WT murine blastocyst cells (BD6)
T1 sequence (P18242 65-410): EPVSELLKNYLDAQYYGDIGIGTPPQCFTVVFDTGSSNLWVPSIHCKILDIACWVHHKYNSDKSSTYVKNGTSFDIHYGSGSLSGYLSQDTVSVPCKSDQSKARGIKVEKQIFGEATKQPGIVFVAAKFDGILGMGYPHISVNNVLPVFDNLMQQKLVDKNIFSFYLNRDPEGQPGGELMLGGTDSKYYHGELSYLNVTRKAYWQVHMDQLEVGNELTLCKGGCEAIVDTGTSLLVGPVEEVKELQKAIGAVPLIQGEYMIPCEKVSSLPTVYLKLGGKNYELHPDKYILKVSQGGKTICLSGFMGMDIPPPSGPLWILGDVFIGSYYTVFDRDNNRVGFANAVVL
Experimental: Immunocytochemistry was performed as previously described (Yu et al., 2005). Secondary antibodies used were from Invitrogen: goat anti-mouse/rabbit/rat Alexa Fluor 488 and goat anti-mouse/rabbit/rat Alexa Fluor 568. Cells were imaged using a plan-Apochromat 40× or 100×/1.4 oil DIC objective lens on the laser scanning confocal microscope, LSM 510 META, with LSM software v3.5 (Carl Zeiss MicroImaging Inc). Images were analysed using ImageJ program (NIH). Organelles with low internal pH were labeled by LysoTracker DND-99 dye (Invitrogen) at the final 100 nM for 30 min. Following 4% PFA fixation, cells were further counter stained with Cat D, LMAP1, or LC3 antibody for 4 hrs then visualized with Alexa Fluor 488 conjugated secondary antibody. Active Cat D was labeled by adding Bodipy-FL-pepstatin A directly to the medium at a final concentration of 1 μg/ml for 1 hr. Following 4% PFA fixation, cells were counter stained with Cat D antibody for 4 hrs and visualized with Alexa Fluor 568 conjugated secondary antibody. […] Cells were incubated for 30 min with MR-Cathepsin B prior to mounting them under the confocal microscope. To block v-ATPase proton pump activity, ammonium chloride (NH4Cl) was added directly to the medium at a final concentration of 20 mM for 6 hrs prior to LysoTracker addition.

[6] = tested on: WT blastocysts; assay: Validation of lysosomal pH measurement in WT blastocysts; format: cell-based, Murine; settings: FIG. 9A
Experimental: as §2
Performed according to the protocol established by Diwu et al (supra). […]
as §3
At the outset, the validity of the method described herein to measure lysosomal pH is confirmed. See, for example, FIG. 9A-D. More particularly, to assess the validity of the method of quantifying lysosomal pH, WT blastocysts were treated with chloroquine (CQ), which is known to elevate lysosomal pH. […]

[7] = in vivo; cited from earlier work
[8] = tested on: LC3-II; assay: LC3-II levels by immunoblot / LC3 puncta in WT and PS1 KO cells; format: cell-based, Murine; settings: 6 hrs
Experimental: (§6) Immunoblotting was performed as previously described (Yu et al., 2005). Briefly, cells used for Western blot analysis were lysed in buffer containing 50 mM Tris (pH=7.4), 150 mM NaCl, 1 mM EDTA, 1 mM EGTA, 1% Triton X-100 and 0.5% Tween-20 with protease and phosphatase inhibitors. Following electrophoresis on 4-20% gradient gel (Invitrogen), proteins were transferred onto 0.45 μm PVDF membranes (Millipore) and the membrane was incubated overnight in primary antibody then incubated with HRP conjugated secondary antibody. The blot was developed by ECL-kit (GE Healthcare). To assess v-ATPase V0a subunit glycosylation, lysate from WT and PS1KO cells were either treated for 24 hrs at 37° C. with PNGase F or O-glycanase using an enzymatic deglycosylation kit according to the manufacturer's instructions (PROzyme) or with Endo H (New England Biolabs) for 24 hrs at 37° C. Total glycoproteins were isolated using Glycoprotein Isolation Kit, ConA according to the manufacturer's instructions (Thermo Scientific).
Immunocytochemistry was performed as previously described (Yu et al., 2005). Secondary antibodies used were from Invitrogen: goat anti-mouse/rabbit/rat Alexa Fluor 488 and goat anti-mouse/rabbit/rat Alexa Fluor 568. […] Images were analysed using ImageJ program (NIH). […]

[9] = tested on: Cat B; assay: Cat B activity by MagicRed-Cathepsin B (MR-Cat B) in PS1KO cells; format: cell-based, Murine; settings: PS1 KO cells
Experimental: as §4, §5

[10] = tested on: v-ATPase V0a1 subunit; assay: v-ATPase V0a1 glycosylation state in WT cells (immunoblot); format: cell-based, Murine; settings: 100-kDa with vs 120-kDa without tunicamycin
Chain of v-ATPase V0a1 subunit (Q9Z1G4 whole entry): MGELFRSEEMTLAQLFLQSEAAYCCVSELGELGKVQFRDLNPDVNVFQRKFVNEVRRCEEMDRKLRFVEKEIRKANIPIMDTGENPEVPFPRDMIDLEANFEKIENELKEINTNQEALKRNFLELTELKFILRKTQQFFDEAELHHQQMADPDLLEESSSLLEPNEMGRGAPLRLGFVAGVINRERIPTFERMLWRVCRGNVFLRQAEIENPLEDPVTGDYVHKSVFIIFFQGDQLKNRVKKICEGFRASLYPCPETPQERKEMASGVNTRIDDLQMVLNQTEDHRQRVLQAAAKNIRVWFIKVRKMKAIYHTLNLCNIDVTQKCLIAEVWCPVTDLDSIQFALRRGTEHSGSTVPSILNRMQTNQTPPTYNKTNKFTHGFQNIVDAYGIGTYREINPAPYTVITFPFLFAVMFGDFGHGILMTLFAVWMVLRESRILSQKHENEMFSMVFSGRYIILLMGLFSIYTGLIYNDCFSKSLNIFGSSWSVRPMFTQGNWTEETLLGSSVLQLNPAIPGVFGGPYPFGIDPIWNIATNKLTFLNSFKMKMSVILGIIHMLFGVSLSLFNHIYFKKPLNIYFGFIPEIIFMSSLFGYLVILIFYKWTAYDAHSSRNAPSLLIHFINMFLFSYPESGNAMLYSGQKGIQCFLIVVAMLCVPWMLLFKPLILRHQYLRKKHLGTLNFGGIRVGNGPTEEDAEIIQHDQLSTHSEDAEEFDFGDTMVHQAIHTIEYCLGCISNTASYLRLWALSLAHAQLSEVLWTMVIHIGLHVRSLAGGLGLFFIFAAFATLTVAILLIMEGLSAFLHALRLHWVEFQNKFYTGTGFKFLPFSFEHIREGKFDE
Experimental: as §6

## Cn1cnc(N)c2ncnc1-2 [3-methyladenine]
[1]
  increase in proteolysis after serum removal: only the increased proteolysis in WT cells was blocked

## O=S(=O)(NCCNC/C=C/c1ccc(Br)cc1)c1cccc2cnccc12 [H89]
[2]
  effect of pretreatment on the action of isoproterenol on lysosomal pH: prevent the action of isoproterenol

## Cl.N [NH4Cl, ammonium chloride]
[3]
  MR-Cat B signal: minimal
[1]
  increase in proteolysis after serum removal: entirely blocked the increase of proteolysis in both cell types
[4]
  difference in proteolytic rates between control and PS1-FAD fibroblasts: eliminated the difference in proteolytic rates between the two cell groups
[5]
  Bodipy-FL-pepstatin A labeling of Cat D-positive compartments (active Cat D): nearly completely abolished; also recorded: minimal colocalization

## C=CCc1ccccc1OCC(O)CNC(C)C (stereo not shown) [alprenolol]
[2]
  effect on elevated lysosomal pH in PS1KO cells: did not affect lysosomal pH; also recorded: remains unchanged

## CCN(CC)CCCC(C)Nc1ccnc2cc(Cl)ccc12 (stereo not shown) [chloroquine]
[6]
  lysosomal pH of WT blastocysts: significantly elevated WT lysosomal pH

## CC(C)(C)NCC(O)c1cc(Cl)c(N)c(Cl)c1 (stereo not shown) [clenbuterol]
[2]; PS1-deleted cells, clinically relevant concentrations
  consequences on lysosomal pH and autophagy in PS1-deleted cells: desired consequences on lysosomal pH and autophagy
[2]
  lysosomal pH after treatment relative to WT lysosomal pH (ANOVA, Dunnet's post-test): did not possess significant difference from WT lysosomal pH; also recorded: did not differ significantly from that of WT lysosomal pH
  effect on elevated lysosomal pH in PS1KO cells: normal levels or even hyperacidic levels; also recorded: restored to WT levels
[7]
  crossing of the blood brain barrier (BBB): cross the blood brain barrier

## COc1cc(/C=C/C(=O)CC(=O)/C=C/c2ccc(O)c(OC)c2)ccc1O [curcumin]
[2]
  lysosomal pH after treatment relative to WT lysosomal pH (ANOVA, Dunnet's post-test): reduces lysosomal pH in excess of WT acidity

## CC(=O)N[C@@H](CC(C)C)C(=O)N[C@@H](CC(C)C)C(=O)N[C@H](C=O)CCCNC(=N)N [leupeptin]
[8]; PS1 KO cells, 0.3 mM
  LC3 levels in PS1 KO cells: did not increase LC3 levels
[8]; WT cells, rapamycin acute induction, leupeptin 0.3 mM
  LC3-II levels in WT cells: significantly elevated LC3-II levels and LC3-positive puncta

## CNC[C@H](O)c1cccc(O)c1 [phenylepherine]
[2]
  effect on elevated lysosomal pH in PS1KO cells: did not affect lysosomal pH; also recorded: remains unchanged

## CC(C)NCC(O)COc1cccc2ccccc12 (stereo not shown) [propranol]
[2]
  effect of pretreatment on the action of isoproterenol on lysosomal pH: prevent the action of isoproterenol

## Oc1ccc(C=Cc2cc(O)cc(O)c2)cc1 [resveratrol]
[9]
  active Cat B in PS1 KO cells: partially restoring active Cat B

## COc1ccc(C2CNC(=O)C2)cc1OC1CCCC1 (stereo not shown) [rolipram]
[2]
  lysosomal pH after treatment relative to WT lysosomal pH (ANOVA, Dunnet's post-test): did not differ significantly from that of WT lysosomal pH
  effect on elevated lysosomal pH in PS1KO cells: decreased lysosomal pH
[2]; listed as Rolipram
  lysosomal pH after treatment relative to WT lysosomal pH (ANOVA, Dunnet's post-test): did not possess significant difference from WT lysosomal pH

## tunicamycin
[10]
  gel mobility of v-ATPase V0a1 subunit: increase in mobility
